System: patients with amyotrophic lateral sclerosis
Test: Placebo-controlled clinical test in amyotrophic lateral sclerosis patients, measured in terms of ALSFRS-R
Assay type: in vivo, human
Protocol: 199 patients with amyotrophic lateral sclerosis who complied with the following selection standards were divided into an actual drug administration group consisting of 100 patients and a placebo administration group of 99 patients:
With regard to the actual drug administration group, two ampules of “Radicut (registered trademark), Injection 30 mg” (containing 30 mg of 3-methyl-1-phenyl-2-pyrazolin-5-one; manufactured and distributed by Mitsubishi Tanabe Pharma Corporation) were diluted with a suitable amount of normal saline before the use, and the thus prepared solution was intravenously administered to the patients by drops over 60 minutes once a day. On the other hand, with regard to the placebo administration group, only normal saline was administered to the patients in the same manner as for the actual drug administration group.
The administration period was divided into first to sixth courses. The first course consisted of a continuous 14-day administration period and the subsequent drug holiday period for 14 days in which drug administration was not carried out. In the second to sixth courses, 1 set consisting of an administration period for a total of 10 out of 14 days and the subsequent 14-day drug holiday period was repeated 5 times.
Before initiation of the drug administration in the first course, and upon termination of the drug holiday periods in the first, second, third, fourth, fifth and sixth courses, the 199 patients were measured in terms of ALSFRS-R. Among the 199 patients, some patients were dropped out from the test during a period after initiation of the administration in the fourth course and before termination of the drug holiday period in the sixth course. In the case of these drop-out patients, the ALSFRS-R score measured immediately before dropping out from the test was considered to be the score upon termination of the drug holiday period in the sixth course, and it was used in the analysis.
A difference between the ALSFRS-R scores between before initiation of the administration in the first course and upon termination of the drug holiday period in the sixth course is shown below.
Subsequently, the 199 patients were divided into the following (1) to (7):
(1) patients who were determined to be “Definite ALS” or “Probable ALS” according to the revised El Escorial (Airlie House) diagnostic criteria; (2) patient who were determined to be “Definite ALS” according to the revised El Escorial (Airlie House) diagnostic criteria; (3) patients who scored two or more points from all items constituting the ALSFRS-R; (4) patients whose % FVC was 80% or more; (5) patients who scored two or more points from all items constituting the ALSFRS-R and whose % FVC was 80% or more; (6) patients who were determined to be “Definite ALS” or “Probable ALS” according to the revised El Escorial (Airlie House) diagnostic criteria, scored two or more points from all items constituting the ALSFRS-R, and whose % FVC was 80% or more; and (7) patients who were determined to be “Definite ALS” according to the revised El Escorial (Airlie House) diagnostic criteria, scored two or more points from all items constituting the ALSFRS-R, and whose % FVC was 80% or more. With regard to the thus specified patients (1) to (7), differences in the ALSFRS-R scores between before the administration in the first course and upon termination of the drug holiday period in the sixth course are shown below.

`CC1=NN(c2ccccc2)C(=O)C1` [Actual drug, 3-methyl-1-phenyl-2-pyrazolin-5-one] was tested, and the “Between-group difference in ALSFRS-R score change (actual drug vs placebo)” value ((1) Definite ALS or Probable ALS) was 1.2 points, the “Before-and-after difference in ALSFRS-R score” value (“Before-and-after difference” for short) ((1) Definite ALS or Probable ALS, before first course vs end of sixth course) was −5.7 points and the “Between-group difference in ALSFRS-R score change (actual drug vs placebo)” value ((2) Definite ALS) was 2.0 points. For the same molecule, the “Before-and-after difference” value ((2) Definite ALS, before first course vs end of sixth course) was −6.7 points, the “Between-group difference in ALSFRS-R score change (actual drug vs placebo)” value ((3) two or more points from all items constituting ALSFRS-R) was 1.6 points and the “Before-and-after difference” value ((3) two or more points from all items constituting ALSFRS-R, before first course vs end of sixth course) was −4.7 points. The “Between-group difference in ALSFRS-R score change (actual drug vs placebo)” value ((4) 80% or more % FVC) was 1.3 points, the “Before-and-after difference” value ((4) 80% or more % FVC, before first course vs end of sixth course) was −3.9 points and the “Between-group difference in ALSFRS-R score change (actual drug vs placebo)” value ((5) two or more points from all ALSFRS-R items and 80% or more % FVC) was 2.5 points. For the same molecule, the “Before-and-after difference” value ((5) two or more points from all ALSFRS-R items and 80% or more % FVC, before first course vs end of sixth course) was −3.4 points, the “Between-group difference in ALSFRS-R score change (actual drug vs placebo)” value ((6) Definite ALS or Probable ALS, two or more points from all ALSFRS-R items, and 80% or more % FVC) was 3.7 points and the “Before-and-after difference” value ((6) Definite ALS or Probable ALS, two or more points from all ALSFRS-R items, and 80% or more % FVC, before first course vs end of sixth course) was −3.8 points. The “Between-group difference in ALSFRS-R score change (actual drug vs placebo)” value ((7) Definite ALS, two or more points from all ALSFRS-R items, and 80% or more % FVC) was 6.4 points, the “Before-and-after difference” value ((7) Definite ALS, two or more points from all ALSFRS-R items, and 80% or more % FVC, before first course vs end of sixth course) was −4.6 points and the “Between-group difference in ALSFRS-R score change (actual drug vs placebo)” value (all patients (not specified)) was 0.7 points. For the same molecule, the “Before-and-after difference” value (all patients (not specified), before first-course administration vs end of sixth-course drug holiday, 60 mg i.v. drops over 60 min once a day) was −5.3 points, the “Comparison with the placebo administration group (ALSFRS-R difference)” value (patient groups (5) to (7)) was “significant difference” and the “Reduction of the risk of death or tracheostomy” value (specific patients (1) to (7), extrapolated from 7% risk per 1 point ALSFRS-R (Neurology 2005; 64: 38-43)) was no less than 3.5%.

Reference: patent US20220047551A1, “PHARMACEUTICAL AGENT FOR TREATING AMYOTROPHIC LATERAL SCLEROSIS OR SUPPRESSING DISEASE PROGRESS THEREOF” (Mitsubishi Tanabe Pharma Corporation, priority 2011, published 2022)
